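Compound exposure: 48 hours, 5 concentrations, 96-well plates. At the TGI there is no net growth.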
Legend:
Experiment in all cases: NCI tumour cell line growth inhibition, 48 h
SK-MEL-5 melanoma = system: SK-MEL-5 melanoma
EKVX NSCLC = system: EKVX NSCLC
U251 CNS = system: U251 CNS
SN12C renal = system: SN12C renal
MALME-3M melanoma = system: MALME-3M melanoma
RXF-631 renal = system: RXF-631 renal
LXFL 529 NSCLC = system: LXFL 529 NSCLC
A498 renal = system: A498 renal
KM12 colon = system: KM12 colon
SNB-75 CNS = system: SNB-75 CNS
OVCAR-3 ovarian = system: OVCAR-3 ovarian
SK-MEL-2 melanoma = system: SK-MEL-2 melanoma
HCT-116 colon = system: HCT-116 colon
OVCAR-8 ovarian = system: OVCAR-8 ovarian
K-562 leukemia = system: K-562 leukemia
ACHN renal = system: ACHN renal
UO-31 renal = system: UO-31 renal
HT29 colon = system: HT29 colon
HOP-92 NSCLC = system: HOP-92 NSCLC
CCRF-CEM leukemia = system: CCRF-CEM leukemia
A549 NSCLC = system: A549 NSCLC
SF-268 CNS = system: SF-268 CNS
SW-620 colon = system: SW-620 colon
SK-MEL-28 melanoma = system: SK-MEL-28 melanoma
SNB-19 CNS = system: SNB-19 CNS
NCI-H460 lung = system: NCI-H460 lung
IGROV1 ovarian = system: IGROV1 ovarian
KM20L2 colon = system: KM20L2 colon
NCI-H23 lung = system: NCI-H23 lung
HCT-15 colon = system: HCT-15 colon
SR leukemia = system: SR leukemia
786-0 renal = system: 786-0 renal
UACC-257 melanoma = system: UACC-257 melanoma
NCI-H522 lung = system: NCI-H522 lung
DLD-1 colon = system: DLD-1 colon
M19-MEL melanoma = system: M19-MEL melanoma
CAKI-1 renal = system: CAKI-1 renal
MOLT-4 leukemia = system: MOLT-4 leukemia
RPMI-8226 leukemia = system: RPMI-8226 leukemia
DMS 273 small cell lung = system: DMS 273 small cell lung
HOP-62 NSCLC = system: HOP-62 NSCLC
HCC-2998 colon = system: HCC-2998 colon
DMS 114 small cell lung = system: DMS 114 small cell lung
NCI-H226 lung = system: NCI-H226 lung
UACC-62 melanoma = system: UACC-62 melanoma
SF-539 CNS = system: SF-539 CNS
COLO 205 colon = system: COLO 205 colon
OVCAR-4 ovarian = system: OVCAR-4 ovarian
XF 498 CNS = system: XF 498 CNS
OVCAR-5 ovarian = system: OVCAR-5 ovarian
SNB-78 CNS = system: SNB-78 CNS
M14 melanoma = system: M14 melanoma
SF-295 CNS = system: SF-295 CNS
RXF 393 renal = system: RXF 393 renal
TK-10 renal = system: TK-10 renal
LOX IMVI melanoma = system: LOX IMVI melanoma
HL-60(TB) leukemia = system: HL-60(TB) leukemia
SK-OV-3 ovarian = system: SK-OV-3 ovarian
HOP-18 NSCLC = system: HOP-18 NSCLC

Compound: CCOC(=O)C(=O)Nc1nc2c(s1)C(=O)c1ccccc1C2=O
- TGI (SK-MEL-5 melanoma): 33.7 µM
- TGI (EKVX NSCLC): 29.6 µM
- TGI (U251 CNS): 31 µM
- TGI (SN12C renal): 30.1 µM
- TGI (MALME-3M melanoma): 25.8 µM
- TGI (RXF-631 renal): 27.8 µM
- TGI (LXFL 529 NSCLC): 26.2 µM
- TGI (A498 renal): 33.2 µM
- TGI (KM12 colon): 30.6 µM
- TGI (SNB-75 CNS): 30.2 µM
- TGI (OVCAR-3 ovarian): 18.6 µM
- TGI (SK-MEL-2 melanoma): 31.7 µM
- TGI (HCT-116 colon): 27.7 µM
- TGI (OVCAR-8 ovarian): 47.5 µM
- TGI (K-562 leukemia): 33.3 µM
- TGI (ACHN renal): 28.1 µM
- TGI (UO-31 renal): 28 µM
- TGI (HT29 colon): 27.4 µM
- TGI (HOP-92 NSCLC): 25.3 µM
- TGI (CCRF-CEM leukemia): 69.8 µM
- TGI (A549 NSCLC): 34.4 µM
- TGI (SF-268 CNS): 27.3 µM
- TGI (SW-620 colon): 27.7 µM
- TGI (SK-MEL-28 melanoma): 27.6 µM
- TGI (SNB-19 CNS): 31.9 µM
- TGI (NCI-H460 lung): 45.8 µM
- TGI (IGROV1 ovarian): 37.6 µM
- TGI (KM20L2 colon): 40.7 µM
- TGI (NCI-H23 lung): 27.6 µM
- TGI (HCT-15 colon): 29.6 µM
- TGI (SR leukemia): 23.4 µM
- TGI (786-0 renal): 31.2 µM
- TGI (UACC-257 melanoma): 31.4 µM
- TGI (NCI-H522 lung): 29.3 µM
- TGI (DLD-1 colon): 31.8 µM
- TGI (M19-MEL melanoma): 7.45 µM
- TGI (CAKI-1 renal): 33.5 µM
- TGI (MOLT-4 leukemia): 18.9 µM
- TGI (RPMI-8226 leukemia): 48.2 µM
- TGI (DMS 273 small cell lung): 40.6 µM
- TGI (HOP-62 NSCLC): 33.5 µM
- TGI (HCC-2998 colon): 31.6 µM
- TGI (DMS 114 small cell lung): 17.6 µM
- TGI (NCI-H226 lung): 34.4 µM
- TGI (UACC-62 melanoma): 34.4 µM
- TGI (SF-539 CNS): 31.5 µM
- TGI (COLO 205 colon): 56.4 µM
- TGI (OVCAR-4 ovarian): 31.5 µM
- TGI (XF 498 CNS): 26.9 µM
- TGI (OVCAR-5 ovarian): 42.5 µM
- TGI (SNB-78 CNS): 24.8 µM
- TGI (M14 melanoma): 32.7 µM

Compound: COC(=O)C12Oc3ccc(-c4ccc5c(c4O)C(=O)C4=CCC(C)C(O)C4(C(=O)OC)O5)c(O)c3C(=O)C1=CCC(C)C2O (stereo not drawn)
- TGI (SK-MEL-5 melanoma): 3.13 µM
- TGI (EKVX NSCLC): 4.97 µM
- TGI (U251 CNS): 3.06 µM
- TGI (SN12C renal): 5.46 µM
- TGI (MALME-3M melanoma): 3.28 µM
- TGI (RXF-631 renal): 4.81 µM
- TGI (LXFL 529 NSCLC): 2.65 µM
- TGI (A498 renal): 3.54 µM
- TGI (KM12 colon): 3.26 µM
- TGI (SNB-75 CNS): 20.5 µM
- TGI (SF-295 CNS): 6.05 µM
- TGI (OVCAR-3 ovarian): 2.9 µM
- TGI (SK-MEL-2 melanoma): 2.82 µM
- TGI (HCT-116 colon): 2.15 µM
- TGI (OVCAR-8 ovarian): 7.33 µM
- TGI (K-562 leukemia): > 30.6 µM
- TGI (RXF 393 renal): 3.03 µM
- TGI (ACHN renal): 3.21 µM
- TGI (UO-31 renal): 2.79 µM
- TGI (HT29 colon): 4.61 µM
- TGI (HOP-92 NSCLC): 3.21 µM
- TGI (CCRF-CEM leukemia): 9.26 µM
- TGI (A549 NSCLC): 6.59 µM
- TGI (SF-268 CNS): 3.57 µM
- TGI (SW-620 colon): 2.65 µM
- TGI (TK-10 renal): 5.24 µM
- TGI (SK-MEL-28 melanoma): 3.51 µM
- TGI (NCI-H460 lung): 6.33 µM
- TGI (IGROV1 ovarian): 3.81 µM
- TGI (KM20L2 colon): 2.93 µM
- TGI (NCI-H23 lung): 2.83 µM
- TGI (HCT-15 colon): 3.46 µM
- TGI (LOX IMVI melanoma): 2.67 µM
- TGI (SR leukemia): > 100 µM
- TGI (786-0 renal): 2.98 µM
- TGI (UACC-257 melanoma): 4.95 µM
- TGI (NCI-H522 lung): 2.45 µM
- TGI (DLD-1 colon): 2.14 µM
- TGI (HL-60(TB) leukemia): 5.1 µM
- TGI (M19-MEL melanoma): 3.63 µM
- TGI (CAKI-1 renal): 4.7 µM
- TGI (MOLT-4 leukemia): > 23 µM
- TGI (SK-OV-3 ovarian): 6.71 µM
- TGI (DMS 273 small cell lung): 3.25 µM
- TGI (HOP-62 NSCLC): 4.12 µM
- TGI (HCC-2998 colon): 2.6 µM
- TGI (DMS 114 small cell lung): 3.81 µM
- TGI (NCI-H226 lung): 3.77 µM
- TGI (UACC-62 melanoma): 2.82 µM
- TGI (SF-539 CNS): 11.9 µM
- TGI (COLO 205 colon): 2.75 µM
- TGI (OVCAR-4 ovarian): 6.1 µM
- TGI (OVCAR-5 ovarian): 3.98 µM
- TGI (SNB-78 CNS): 17.4 µM
- TGI (HOP-18 NSCLC): 6.56 µM
- TGI (M14 melanoma): 3.46 µM

Compound: O=c1c2ccccc2[nH]c(=S)n1-c1ccc(Br)cc1
- TGI (EKVX NSCLC): > 100 µM
- TGI (U251 CNS): > 100 µM
- TGI (SN12C renal): > 100 µM
- TGI (MALME-3M melanoma): > 100 µM
- TGI (LXFL 529 NSCLC): > 100 µM
- TGI (A498 renal): > 100 µM
- TGI (KM12 colon): > 100 µM
- TGI (SNB-75 CNS): > 100 µM
- TGI (SF-295 CNS): > 100 µM
- TGI (OVCAR-3 ovarian): > 100 µM
- TGI (SK-MEL-2 melanoma): > 100 µM
- TGI (HCT-116 colon): > 100 µM
- TGI (OVCAR-8 ovarian): > 100 µM
- TGI (K-562 leukemia): > 100 µM
- TGI (RXF 393 renal): > 100 µM
- TGI (ACHN renal): > 100 µM
- TGI (UO-31 renal): > 100 µM
- TGI (HT29 colon): > 100 µM
- TGI (HOP-92 NSCLC): 70 µM
- TGI (A549 NSCLC): > 100 µM
- TGI (SF-268 CNS): > 100 µM
- TGI (SW-620 colon): > 100 µM
- TGI (TK-10 renal): > 100 µM
- TGI (SK-MEL-28 melanoma): > 100 µM
- TGI (SNB-19 CNS): > 100 µM
- TGI (NCI-H460 lung): > 100 µM
- TGI (IGROV1 ovarian): > 100 µM
- TGI (KM20L2 colon): > 100 µM
- TGI (NCI-H23 lung): > 100 µM
- TGI (HCT-15 colon): > 100 µM
- TGI (LOX IMVI melanoma): > 100 µM
- TGI (SR leukemia): > 100 µM
- TGI (786-0 renal): > 100 µM
- TGI (UACC-257 melanoma): > 100 µM
- TGI (NCI-H522 lung): > 100 µM
- TGI (DLD-1 colon): > 100 µM
- TGI (HL-60(TB) leukemia): > 100 µM
- TGI (M19-MEL melanoma): > 100 µM
- TGI (MOLT-4 leukemia): > 100 µM
- TGI (RPMI-8226 leukemia): > 100 µM
- TGI (HOP-62 NSCLC): > 100 µM
- TGI (HCC-2998 colon): > 100 µM
- TGI (DMS 114 small cell lung): > 100 µM
- TGI (NCI-H226 lung): > 100 µM
- TGI (SF-539 CNS): > 100 µM
- TGI (COLO 205 colon): > 100 µM
- TGI (OVCAR-4 ovarian): > 100 µM
- TGI (XF 498 CNS): > 100 µM
- TGI (SNB-78 CNS): > 100 µM
- TGI (HOP-18 NSCLC): > 100 µM
